PubChem BioAssay (NCI)
Where “and” joins values, the source holds several entries; their conditions need not be identical. Identical values can stand only once.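 Assay format: 96-well plates, 48-hour exposure. Abbreviation: GI50, concentration required for 50% inhibition of growth. The concentration for full growth arrest is given as TGI.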

Legend:
Test in all cases: NCI tumour cell line growth inhibition, 48 h
SNB-78 CNS = test system: SNB-78 CNS
DMS 273 small cell lung = test system: DMS 273 small cell lung
HOP-18 NSCLC = test system: HOP-18 NSCLC
LXFL 529 NSCLC = test system: LXFL 529 NSCLC
XF 498 CNS = test system: XF 498 CNS
M19-MEL melanoma = test system: M19-MEL melanoma
DLD-1 colon = test system: DLD-1 colon
RXF-631 renal = test system: RXF-631 renal
MDA-N = test system: MDA-N
SN12K1 renal = test system: SN12K1 renal
P388/ADR leukemia = test system: P388/ADR leukemia
P388 leukemia = test system: P388 leukemia

SMILES	TGI (SNB-78 CNS)	TGI (DMS 273 small cell lung)	TGI (HOP-18 NSCLC)	TGI (LXFL 529 NSCLC)	TGI (XF 498 CNS)	TGI (M19-MEL melanoma)	TGI (DLD-1 colon)	TGI (MDA-N)	further results
CC(=O)OC12C(C)=C(C)C(=O)N1c1ccccc1N2C(C)=O (stereo unspecified)	> 100 µM	> 100 µM	> 100 µM	> 100 µM	> 100 µM	> 100 µM	–	–	–
CC(=O)OCc1c(O)c2c([nH]c1=O)CCc1ccccc1-2	–	159 µM	295 µM	111 µM	104 µM	108 µM	162 µM	–	TGI (RXF-631 renal): 149 µM
Nc1nc(=O)n(C2CCC(CO)O2)cc1F (stereo unspecified)	> 100 µM	> 100 µM	> 100 µM	> 100 µM	–	–	> 100 µM	–	–
O=C1C2CCN(CC2)C1CN1CCOCC1 (stereo unspecified)	56.1 µM	25.3 µM	15.8 µM	3.88 µM	14.5 µM	26.2 µM	3.18 µM	20.1 µM	TGI (RXF-631 renal): 31 µM
O=C(O)Cc1cccc2c(=O)cc(-c3ccccc3)oc12	> 250 µM	> 250 µM	250 µM	–	89.7 µM	> 250 µM	> 250 µM	250 µM and > 893 µM	TGI (SN12K1 renal): > 250 µM; TGI (P388/ADR leukemia): 150 µM; GI50 (MDA-N): 176 µM; TGI (P388 leukemia): 250 µM
O=C1CCCCCCC2=C1C(Sc1ccccc1)CC2 (stereo unspecified)	> 100 µM	61.7 µM	> 100 µM	> 100 µM	–	> 100 µM	–	–	–
COc1ccc(NC(=O)Oc2ccc3c(C)cc(=O)oc3c2)c(OC)c1 (tested in a mixture with another compound)	–	–	–	–	–	–	–	> 100 µM	–
O=C(O)/C=C/c1ccc(Oc2ccccc2C(=O)O)o1	–	–	–	–	–	–	–	> 10 µM	–
CC(Oc1ccc2c(-c3ccc(Cl)cc3)cc(=O)oc2c1)C(=O)O (stereo unspecified)	> 100 µM	–	> 100 µM	> 100 µM	> 100 µM	–	> 100 µM	–	TGI (RXF-631 renal): > 100 µM
CC(C)(C)OC(=O)C1C(=O)NC(=O)CC1CC(OCc1ccccc1)C(OCc1ccccc1)C(COCc1ccccc1)OCc1ccccc1 (stereo unspecified)	–	–	–	–	–	–	–	> 100 µM	GI50 (MDA-N): > 100 µM and 34.2 µM
O=C(c1c(F)c(F)c(F)c(F)c1F)c1c(F)c(F)c(F)c(F)c1F	–	–	–	–	–	–	–	3.11 µM	–
COc1ccc(N2C(=O)C3CC(c4ccc(Br)cc4)c4c([nH]c5ccccc45)C3C2=O)cc1 (stereo unspecified)	36.3 µM	18.2 µM	24.8 µM	14.2 µM	32 µM	25.6 µM	23.4 µM	–	–
CCC[CH2][Sn](=[O])[CH2]CCC	> 50 µM	> 50 µM	> 50 µM	> 50 µM	–	> 50 µM	> 50 µM	–	GI50 (SNB-78 CNS): > 50 µM; GI50 (DLD-1 colon): > 50 µM; GI50 (DMS 273 small cell lung): > 50 µM; GI50 (HOP-18 NSCLC): > 50 µM; GI50 (LXFL 529 NSCLC): > 50 µM; GI50 (M19-MEL melanoma): > 50 µM
Cc1ccc(OP(=O)(Oc2ccc(C)cc2)N2C=Cc3ccccc3C2C#N)cc1 (stereo unspecified)	–	–	–	–	–	–	–	> 100 µM	–
O=C1c2ccccc2C(=O)N1CCc1ncc(-c2ccccc2)[nH]1	–	–	–	–	–	–	–	> 100 µM	–
CCCCN(CC)C(=O)C(=O)Cc1nc2ccc(C(=O)c3ccccc3)cc2[nH]c1=O	> 100 µM	> 100 µM	–	> 100 µM	–	> 100 µM	> 100 µM	–	–
CC(C)(C)C1=CC(=N/N=c2\scc(-c3ccccc3)n2-c2ccccc2)C=C(C(C)(C)C)C1=O	> 100 µM	> 100 µM	> 100 µM	> 100 µM	> 100 µM	> 100 µM	> 100 µM	–	–
O=C(O)c1cccc(S(=O)(=O)NCCO)c1	–	–	–	–	–	–	–	> 100 µM	–
O=S1(=O)c2ccccc2N(O)C2=NCCN21	> 100 µM	> 100 µM	–	> 100 µM	–	> 100 µM	> 100 µM	–	–

SMILES	TGI (SNB-78 CNS)	TGI (DMS 273 small cell lung)	TGI (HOP-18 NSCLC)	TGI (LXFL 529 NSCLC)	TGI (XF 498 CNS)	TGI (M19-MEL melanoma)	TGI (DLD-1 colon)	TGI (MDA-N)	further results
O=C1Nc2c(Cl)cc(Cl)cc2/C1=N/N=C/c1ccco1	–	–	–	–	–	–	–	55.3 µM	–
COc1ccc(C(=O)C2CCC(C(=O)O)C2)cc1 (stereo unspecified)	> 100 µM	> 100 µM	–	> 100 µM	–	> 100 µM	> 100 µM	–	–
CCCCCCCCCCCCSC(=S)c1c(C)[nH]n(-c2ccccc2)c1=O	> 50 µM	–	> 50 µM	> 50 µM	–	–	> 50 µM	–	TGI (RXF-631 renal): > 50 µM
CSC(=O)C[C@@]12O[C@@H]([C@@H](C)C3CCC4[C@@H]5C(O)CC6=CC(=O)C=C[C@]6(C)C5CC[C@@]43C)C[C@](C)(O1)C(C)(C)O2 (stereo partly specified)	37.6 µM	35.9 µM	–	26.4 µM	28.8 µM	8.4 µM	–	–	TGI (RXF-631 renal): 54.9 µM
CCN(CC)CCN(CC)CC.CCN(CC)CCN(CC)CC.[Cu+2].[Cu+2].[O-][Cl+3]([O-])([O-])[O-].[OH3+].[OH3+]	> 100 µM	> 100 µM	> 100 µM	> 100 µM	–	53.7 µM	> 100 µM	–	GI50 (SNB-78 CNS): > 100 µM; GI50 (DLD-1 colon): 51.9 µM; GI50 (DMS 273 small cell lung): 22 µM; GI50 (HOP-18 NSCLC): > 100 µM; GI50 (LXFL 529 NSCLC): > 100 µM; GI50 (M19-MEL melanoma): 24.2 µM
CCOC(=O)C12CCCC1(O)N(NC(=O)OC)C(C)=C2C(=O)OC (stereo unspecified)	> 100 µM	> 100 µM	> 100 µM	> 100 µM	> 100 µM	> 100 µM	> 100 µM	–	TGI (RXF-631 renal): > 100 µM
CC(C)(C)C(=O)N1C(C(=O)O)Cc2ccccc2[C@@H]1Cc1ccccc1 (stereo partly specified)	> 100 µM	> 100 µM	> 100 µM	> 100 µM	> 100 µM	> 100 µM	–	–	TGI (RXF-631 renal): > 100 µM
CSC(=NC(=O)c1ccccc1Cl)SCCSC(=NC(=O)c1ccccc1Cl)SC	> 100 µM	> 100 µM	–	–	> 100 µM	> 100 µM	> 100 µM	–	–
CCOC(=O)c1ccc(-n2cnc(-c3ccc([N+](=O)[O-])cc3)c2)cc1	–	–	–	–	–	–	–	> 100 µM	–
CN(C)CCNc1ccc2ncn3c4ccc(O)cc4c(=O)c1c23	21.4 µM	12.4 µM	49.6 µM	14.6 µM	17.1 µM	13.1 µM	16.1 µM	15.1 µM	–
Cc1cccc(-c2nnc3s/c(=C\c4ccc(N(C)C)cc4)c(=O)n23)c1	> 100 µM	> 100 µM	> 100 µM	> 100 µM	> 100 µM	> 100 µM	> 100 µM	–	–
Cc1ccc(OCC2CO2)c(Br)c1 (stereo unspecified)	–	–	–	–	–	–	–	58.9 µM	–
c1ccc(SC(Sc2ccccc2)=C2CCC2)cc1	> 100 µM	> 100 µM	–	–	> 100 µM	> 100 µM	> 100 µM	–	TGI (RXF-631 renal): > 100 µM
O=[N+]([O-])c1nccn1CC(O)c1ccccc1 (stereo unspecified)	–	> 100 µM	> 100 µM	> 100 µM	> 100 µM	–	–	–	–
CCOC(=O)C1(C(=O)OCC)C(C(C)(C)C)=C(C)c2ccccc21	–	25.5 µM	70.2 µM	24.5 µM	26.3 µM	38.8 µM	26.4 µM	–	TGI (RXF-631 renal): 37.9 µM
Cc1ccc(NCC2(/N=C/c3ccccc3)OC(CO)C(O)C2O)cc1 (stereo unspecified)	–	> 100 µM	–	> 100 µM	> 100 µM	–	> 100 µM	–	–
C=CCC1(C(=O)OC)CCC/C(=N\O)C1 (stereo unspecified)	–	–	–	–	–	–	–	> 10 µM	–
CN(C)c1ccc(/C=c2\sc3nnc(-c4ccco4)n3c2=O)cc1	> 100 µM	> 100 µM	> 100 µM	> 100 µM	> 100 µM	> 100 µM	> 100 µM	–	TGI (RXF-631 renal): > 100 µM
O=C(C[n+]1ccccc1)N/N=C(/CCC(=O)N(Cc1ccccc1)Cc1ccccc1)CC(=O)c1ccccc1	> 100 µM	> 100 µM	> 100 µM	> 100 µM	–	> 100 µM	> 100 µM	–	TGI (RXF-631 renal): > 100 µM
